# Data reported in ChEMBL document CHEMBL4020754, “Isolation of the antibiotic pseudopyronine B and SAR evaluation of C3/C6 alkyl analogs” (Bioorg Med Chem Lett, 2017).
# What was measured:
# Type in all cases: functional
# Staphylococcus aureus = experiment: Antibacterial activity against Staphylococcus aureus ATCC 29213 measured after 24 hrs; conditions: ATCC 29213, 24 h
# Escherichia coli = experiment: Antibacterial activity against Escherichia coli ATCC 15022 measured after 24 hrs; conditions: ATCC 15022, 24 h
# Bacillus subtilis = experiment: Antibacterial activity against Bacillus subtilis ATCC 11774 measured after 24 hrs; conditions: ATCC 11774, 24 h
# Pseudomonas aeruginosa = experiment: Antibacterial activity against Pseudomonas aeruginosa ATCC 9027 measured after 24 hrs; conditions: ATCC 9027, 24 h
Structure (SMILES),IC50 (Staphylococcus aureus) [µg/mL],IC50 (Escherichia coli) [µg/mL],IC50 (Bacillus subtilis) [µg/mL],IC50 (Pseudomonas aeruginosa) [µg/mL]
CCCCCCCc1cc(O)c(CCCCCC)c(=O)o1 [PSEUDOPYRONINES B],0.1,> 1000,0.3,> 1000
CCCc1c(O)cc(CC)oc1=O,244,278,203,> 1000
CCCCCCCc1c(O)cc(CCCCCC)oc1=O,0.04,> 1000,0.7,> 1000
CCc1c(O)cc(C)oc1=O,> 1000,300,> 1000,> 1000
CCCCCCc1c(O)cc(CCCCC)oc1=O,2.4,> 1000,3.3,> 1000
CCCCCCCCCc1c(O)cc(CCCCCCCC)oc1=O,> 1000,> 1000,> 1000,> 1000
CCCCCCCCc1c(O)cc(CCCCCCC)oc1=O,> 1000,> 1000,24,> 1000

# Other lines, results leading:
IC50 (Staphylococcus aureus) [µg/mL],IC50 (Escherichia coli) [µg/mL],IC50 (Bacillus subtilis) [µg/mL],IC50 (Pseudomonas aeruginosa) [µg/mL],Structure (SMILES)
33,> 1000,46,> 1000,CCCCc1c(O)cc(CCC)oc1=O
46,248,1000,> 1000,CCCC(=O)c1c(O)cc(CCC)oc1=O
24,223,227,> 1000,CCCCC(=O)c1c(O)cc(CCCC)oc1=O
116,257,> 1000,> 1000,CCC(=O)c1c(O)cc(CC)oc1=O
3.8,> 1000,21,> 1000,CCCCCC(=O)c1c(O)cc(CCCCC)oc1=O
48,> 1000,27,> 1000,CCCCCCCC(=O)c1c(O)cc(CCCCCCC)oc1=O
> 1000,> 1000,> 1000,> 1000,CCCCCCCCC(=O)c1c(O)cc(CCCCCCCC)oc1=O
1.5,> 1000,3.5,> 1000,CCCCCCC(=O)c1c(O)cc(CCCCCC)oc1=O
4.6,> 1000,23,> 1000,CCCCCc1c(O)cc(CCCC)oc1=O
